The record followed here is patent publication US6632794B1, “Insulin-like growth factor agonist molecules” (Genentech, Inc., priority 1997, dated 2003).

The target in one experiment is T1, IGFBP-1 (Homo sapiens, UniProt P08833).
T1 construct: biotin (chemical label, EZ-LINK NHS-SS-Biotin)
T1 sequence (P08833 26-259): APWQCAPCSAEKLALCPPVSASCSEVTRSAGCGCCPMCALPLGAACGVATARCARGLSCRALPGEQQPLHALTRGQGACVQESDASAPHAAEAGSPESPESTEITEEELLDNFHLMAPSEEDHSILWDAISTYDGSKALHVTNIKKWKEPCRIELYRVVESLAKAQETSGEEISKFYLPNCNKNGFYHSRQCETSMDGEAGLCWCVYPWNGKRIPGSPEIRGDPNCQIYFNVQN
As to the kind of experiment: BIAcore competition assay, IGFBP-1 binding to IGF-I. On the procedure:
Two series of synthetic peptide variants were generated to determine which side chains of the bp1-01 peptide might contribute directly to binding IGFBP-1. In the first series an alanine-scanning approach (Cunningham and Wells, Science, 244: 1081-1085 (1989)) was used to remove that portion of each side chain beyond the beta carbon. The contribution of these atoms to the free energy of binding of the peptide to IGFBP-1 was then assessed by measuring the potency (IC50) of the variant for inhibiting IGFBP-1 binding to IGF-I or IGF-II in a BIAcore™competition assay, analogous to that described for IGFBP-3 (see Example 7).
Substitutions at the N-terminus or C-terminus yielded affinity improvements. […] All of these peptides had similar or improved apparent affinity for IGFBP-1 as compared with bp1-01 and bp1-02 and are thus expected to increase the availability of IGF-I in an in vitro cell culture assay.
For orientation: SPR reads the build-up and loss of mass on a sensor chip optically.

Experiment [1] addresses T2, recombinant human (rh) IGFBP-1 (Homo sapiens, UniProt P08833).
T2 sequence (P08833 26-259): T1 sequence (P08833 26-259)
The experiment is described as follows: ^125I-IGF-I competitive binding plate assay, IGFBP-1. The conditions noted are these: FIG. 36. On the procedure: (§1) The mutant (Leu^24,Ala^31)hIGF-I was also tested for its ability to displace radio-labeled rhIGF-I off the IGFBPs in a competitive binding assay. This assay involves coating recombinant human (rh) IGFBP-1 or rhIGFBP-3 (160 ng/ml) onto 96-well plates overnight, blocking the plates for one hour with 0.5% BSA, adding rhIGF-I (250-0.08 ng/ml) or (Leu^24,Ala^31)hIGF-I for 1 hour, then adding 20,000 cpm of ^125I-IGF-I and incubating for 2 hours before washing and counting.
(§2) As an additional assay of peptide activity, several peptides were tested in an assay using ^125I-labeled IGF-I to measure inhibition of IGFBP binding, as described in Example 1 (Assay 3). Serial dilutions of peptide were added to an IGFBP-1 or an IGFBP-3 plate. Thereafter, ^125I-labeled IGF-I was added and the plates were incubated for 2 hours. The plates were then washed and counted to determine the amount of bound IGF-I.

Experiment [2] has as its target T3, IGFBP-3 (Homo sapiens, UniProt P17936). The experiment is described as follows: BIAcore competition assay, IGFBP-3 binding to immobilized IGF-I. As for the experimental part: A. BIAcore™ Competition Assay (for IGFBP-3 Binders)
IGF-I was immobilized on a dextran chip for inhibition assays using a BIAcore™ 2000 surface-plasmon-resonance device (BIAcore, Inc., Piscataway, N.J.) to measure free binding protein. […] Serial dilutions of peptide were mixed with a constant concentration (40 nM) of IGFBP-3. After incubation for >1 hour at room temperature, an aliquot of 20 μL was injected at a flow rate of 20 μL/min over the IGF-I chip. Following the injection, a response reading was taken to measure the relative amount of IGFBP-3 bound to the IGF-I.

For experiment [3], the target named is T3, IGFBP-3. The experiment is described as follows: ^125I-IGF-I competitive binding plate assay, IGFBP-3. As to conditions: FIG. 35. As for the experimental part:
as §1, §2

The target of experiment [4] is T3, IGFBP-3. As to the kind of experiment: BIAcore competition assay, IGFBP-3 binding to immobilized IGF-II. As to conditions: 20 nM IGFBP-3; approximately 1500 RU immobilized IGF-II; read-out: IC50, inhibition of IGFBP-3 binding to IGF-II (BIAcore). On the procedure: D. BIAcore™ Competition Assay (for IGFBP-3 Binders)
IGF-II was immobilized on a dextran chip for inhibition assays using a BIAcore™ 2000 surface-plasmon-resonance device (BIAcore, Inc., Piscataway, N.J.) to measure free binding protein. IGF-II was biotinylated as described above, and injected over a chip to which streptavidin had been coupled (BIAcore, Inc.) to give approximately 1500 RU of immobilized IGF-II. […] Serial dilutions of peptide were mixed with a constant concentration (20 nM) of IGFBP-3. After incubation for ≧1 hour at room temperature, an aliquot of 20 μl was injected at a flow rate of 20 μl/min over the IGF-II chip. Following the injection, a response reading was taken to measure the relative amount of IGFBP-3 bound to the IGF-II.

In experiment [5] the target is T3, IGFBP-3. The experiment is described as follows: KIRA assay of IGF-I activity with IGF-I plus IGFBP-3 and peptide. In kind it is cell-based. As for the experimental part:
C. In Vitro Activation (KIRA)
The ability of several synthetic peptides to block IGF-I binding to IGFBPs and release functional IGF-I was tested in a KIRA assay of IGF-I activity, as described in Example 1. Cells were treated with IGF-I alone, peptide alone, peptide plus IGF-I, IGF-I plus binding protein (IGFBP-1 or IGFBP-3), or IGF-I plus binding protein (IGFBP-1 or IGFBP-3) and peptide.
It is believed that this would drop to 30 uM with a 1:1 ratio.

The test system of experiment [6] is endogenous IGFBPs present in human serum. As to the kind of experiment: Displacement of ^125I-IGF-I from IGFBPs in human serum (FPLC-SEC). As to conditions: human serum; peptide at 0.2 mM. In kind it is binding. On the procedure: To determine if the IGF mutant could displace IGF-I from endogenous IGFBPs present in human serum, the following experiment was performed. Radiolabeled rhIGF-I (^125-IGF-I) was incubated with normal human serum samples at a concentration of 33 ng/ml for 16 hr at 4° C. to allow for the formation of […] complexes. […] The samples (n=3) were then analyzed by FPLC size-exclusion chromatography (FPLC-SEC) to determine the relative size and amounts of the ^125I-IGF-I:IGFBP complexes.
Data are expressed as cpm per fraction (n=1).
This Example tests an IGFBP-3-specific peptide, BP15, for its ability to block the binding of ^125I-IGF-I in human serum. Human serum was incubated with ^125I-IGF-I±the peptide and the amount of tracer bound to IGFBPs via size-exclusion chromatography was measured.

Setting [7] is: 40 nM IGFBP-3, 400 to 800 RU immobilized IGF-I, read-out: BIAcore Assay IC50, inhibition of IGF-I binding to IGFBP-3.

Positions of bridges follow the written chain, without caps; N, C: chain ends. Residues, ends and D or L forms follow the SMILES beside them. No end group written: not given here.

T3 sequence (P17936 28-291): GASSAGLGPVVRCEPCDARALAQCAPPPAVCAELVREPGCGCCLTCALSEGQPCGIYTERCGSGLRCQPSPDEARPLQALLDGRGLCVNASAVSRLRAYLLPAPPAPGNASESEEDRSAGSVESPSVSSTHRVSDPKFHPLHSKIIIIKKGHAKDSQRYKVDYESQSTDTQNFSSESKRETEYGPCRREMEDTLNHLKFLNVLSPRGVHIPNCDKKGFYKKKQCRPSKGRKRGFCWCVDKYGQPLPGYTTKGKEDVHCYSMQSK

Consider `CC(C)C[C@@H]1NC(=O)[C@H](Cc2c[nH]c3ccccc23)NC(=O)[C@H](CCC(N)=O)NC(=O)[C@H](CC(C)C)NC(=O)[C@@H]2CCCN2C(=O)CNC(=O)[C@H](C)NC(=O)[C@H](CCCNC(=N)N)NC(=O)[C@@H](NC(=O)[C@@H](NC(=O)[C@H](CCCNC(=N)N)NC(=O)[C@H](C)NC(=O)[C@@H](N)CCC(=O)O)C(C)C)CSSC[C@@H](C(=O)N[C@@H](CCC(=O)O)C(=O)N[C@@H](CCCCN)C(=O)N[C@@H](Cc2ccc(O)cc2)C(=O)N[C@@H](Cc2ccccc2)C(N)=O)NC1=O` [bp1-20] (H-EARVCRAGPLQWLCEKYF-NH2; disulfide 5-14), for which the “IGF-I Inhibition IC50 (114)/IC50 (mut)” value on IGFBP-1 (g3 bp1-01 selectants by BIAcore, relative to bp1-14, higher = better) was 2.6. For the same compound, the “IGF-I Inhibition IC50 (116)/IC50 (mut)” value at IGFBP-1 (g3 bp1-01 selectants by BIAcore, relative to bp1-16, higher = better) is given as 12.

Consider `CSCC[C@@H]1NC(=O)[C@H](Cc2c[nH]c3ccccc23)NC(=O)[C@@H]2CCCN2C(=O)CNC(=O)[C@H](CC(=O)O)NC(=O)[C@H](C)NC(=O)[C@@H](NC(=O)[C@@H](NC(=O)CNC(=O)[C@H](CCSC)NC(=O)[C@@H](N)CC(=O)O)C(C)C)CSSC[C@@H](C(=O)N[C@@H](CCC(=O)O)C(=O)N[C@@H](Cc2c[nH]c3ccccc23)C(=O)N[C@H](C(=O)N[C@@H](CCC(=O)O)C(=O)O)[C@@H](C)O)NC(=O)[C@H](C(C)C)NC(=O)[C@H](Cc2ccc(O)cc2)NC1=O` [BP3-02-ox] (H-DMGVCADGPWMYVCEWTE-OH; disulfide 5-14; N-terminus and C-terminus assumed), for which the “inhibition of ^125I-IGF-I binding to an IGFBP-1 coated plate” value in experiment [1] was “did not inhibit”. Also, at IGFBP-3 [2] (setting [7]), the IC50 (in general, the midpoint of a concentration-inhibition curve) worked out at 12 µM. Also, the “inhibition of ^125I-IGF-I binding to an IGFBP-3 plate” value at IGFBP-3 [3] is on record as “inhibition”.

As for “CRAGPLQWLCEKYFSTY-nh2 (CRAGPLQWLCEKYFSTY-NH2; disulfide 1-10) [bp1-21B]”, the “affinity improvement compared with bp1-16” value with IGFBP-1 (IGFBP-1) was around 3 fold.

In the case of `CC(C)C[C@@H]1NC(=O)[C@H](Cc2ccc(O)cc2)NC(=O)[C@H](Cc2c[nH]c3ccccc23)NC(=O)[C@H](CCC(=O)O)NC(=O)[C@H](C)NC(=O)[C@H](C(C)C)NC(=O)[C@@H]2CCCN2C(=O)[C@H](Cc2c[nH]c3ccccc23)NC(=O)[C@@H](NC(=O)[C@@H](N)C(C)C)CSSC[C@@H](C(=O)N[C@@H](CC(N)=O)C(=O)O)NC1=O` [BP17] (H-VCWPVAEWYLCN-OH; disulfide 2-11; N-terminus and C-terminus assumed), the IC50 was found to be 5.1 µM at IGFBP-3 [4] and 9 µM on IGFBP-3 [2] (setting [7]).

As to `CC(C)C[C@@H]1NC(=O)[C@H](Cc2ccc(O)cc2)NC(=O)[C@H](Cc2c[nH]c3ccccc23)NC(=O)[C@H](CCC(=O)O)NC(=O)[C@H](C)NC(=O)[C@H](C(C)C)NC(=O)[C@@H]2CCCN2C(=O)[C@H](Cc2c[nH]c3ccccc23)NC(=O)[C@@H](NC(=O)[C@@H](NC(=O)[C@H](CCC(=O)O)NC(=O)[C@H](CCC(=O)O)NC(=O)[C@@H](N)CO)C(C)C)CSSC[C@@H](C(=O)N[C@@H](CC(N)=O)C(=O)O)NC1=O` [BP15] (H-SEEVCWPVAEWYLCN-OH; disulfide 5-14; N-terminus and C-terminus assumed), the IC50 at IGFBP-3 [4] came out at 0.78 µM; at IGFBP-3 [5] (IGFBP-3:IGF-1 at a 3:1 ratio, read-out: IC50 for blocking of IGFBP-3 (activation of the KIRA assay)) it was 95 µM; at IGFBP-3 [2] (setting [7]), 0.75 µM; at IGFBP-3 [2] (bp3-01-ox variants by BIAcore competition assay, read-out: IGF-I Inhibition IC50), 0.72 µM. Also, at IGFBP-3 [5] (IGFBP-3:IGF-1 1:1 ratio, not tested), the “IC50 believed to result with a 1:1 ratio (KIRA)” value turned out to be 30 µM. In addition, in experiment [6], the “decrease in ^125I-IGF-I associated with the 150-KD IGF/IGFBP-3/ALS complex” value is reported as around 42%. In addition, in experiment [6], the “increase in the amount of free ^125I-IGF-I” value is given as 59%. Further, the “IGF-I Inhibition IC50 (mut)/IC50 (wt)” value at IGFBP-3 [2] (bp3-01-ox variants by BIAcore, wt = bp3-01-ox) is listed as 0.36.

In the case of `CC[C@H](C)[C@@H]1NC(=O)[C@H](Cc2ccc(O)cc2)NC(=O)CNC(=O)[C@H](CCC(N)=O)NC(=O)[C@H](CC(=O)O)NC(=O)[C@H](Cc2c[nH]cn2)NC(=O)[C@H](CCCNC(=N)N)NC(=O)[C@H](CC(=O)O)NC(=O)[C@H](Cc2c[nH]c3ccccc23)NC(=O)[C@@H](NC(=O)[C@@H](NC(=O)[C@H](CCC(=O)O)NC(=O)[C@H](Cc2c[nH]c3ccccc23)NC(=O)[C@H](C)NC(=O)[C@@H](N)C(C)C)C(C)C)CSSC[C@@H](C(=O)N[C@H](C(=O)N[C@H](C(=O)N[C@@H](CC(=O)O)C(=O)N[C@@H](CO)C(=O)O)[C@@H](C)O)[C@@H](C)O)NC1=O` [BP3-4D3.11] (H-VAWEVCWDRHDQGYICTTDS-OH; disulfide 6-16; N-terminus and C-terminus assumed), the results for the IC50 at IGFBP-3 [4] and on IGFBP-3 [2] (setting [7]) were 1 µM and below 10 µM, respectively.
